Article PMC6112376, “Comprehensive Analyses and Prioritization of Tox21 10K Chemicals Affecting Mitochondrial Function by in-Depth Mechanistic Studies” (Environmental Health Perspectives, 2018)
Where two headings read alike, the source gives them in different places.

How the values were obtained:
HepG2 cells [1] = test: ROS-Glo hydrogen peroxide (ROS) assay; assay type: cell-based, human
[2] = system: mitochondrial respiratory chain complex I; assay type: biochemical, rat; details: at 100μM
[3] = system: isolated rat liver mitochondria; test: Oxygen consumption, Clark-type oxygen electrode; assay type: biochemical
[4] = system: HeLa cells expressing YFP-Parkin; test: Parkin translocation assay; assay type: cell-based, human
[5] = system: mitochondrial respiratory chain complex V; assay type: biochemical, rat
[6] = system: Nrf2/ARE (ARE-bla HepG2 cells); test: ARE β-lactamase reporter gene assay; assay type: cell-based, human; details: for EC50: 16 h incubation, mean±SD of three experiments, read-out: ARE (HepG2) EC50; for ARE (HepG2) (efficacy): % of positive control
[7] = system: Caenorhabditis elegans (Bristol N2); test: C. elegans larval development and growth assay
[8] = system: mitochondrial respiratory chain complex IV; assay type: biochemical, rat
[9] = system: mitochondrial respiratory chain complex III; assay type: biochemical, rat; details: at 100μM
HepG2 cells [10] = test: Oxygen consumption, Seahorse XF24 analyzer; assay type: cell-based, human
[11] = molecular target: T1, mitochondrial respiratory chain complex II (Rattus norvegicus, UniProt P21913+Q641Z9+Q6PCT8+Q920L2); test: Respiratory chain complex II activity; assay type: biochemical; details: at 100μM; mean±SD of three experiments
T1 construct: Submitochondrial particles were prepared by subjecting the intact rat mitochondria, isolated as described above, to three successive freeze–thaw cycles; from tissue; host or cells: rat liver mitochondria (submitochondrial particles)
T1 sequence (Q920L2 35-656): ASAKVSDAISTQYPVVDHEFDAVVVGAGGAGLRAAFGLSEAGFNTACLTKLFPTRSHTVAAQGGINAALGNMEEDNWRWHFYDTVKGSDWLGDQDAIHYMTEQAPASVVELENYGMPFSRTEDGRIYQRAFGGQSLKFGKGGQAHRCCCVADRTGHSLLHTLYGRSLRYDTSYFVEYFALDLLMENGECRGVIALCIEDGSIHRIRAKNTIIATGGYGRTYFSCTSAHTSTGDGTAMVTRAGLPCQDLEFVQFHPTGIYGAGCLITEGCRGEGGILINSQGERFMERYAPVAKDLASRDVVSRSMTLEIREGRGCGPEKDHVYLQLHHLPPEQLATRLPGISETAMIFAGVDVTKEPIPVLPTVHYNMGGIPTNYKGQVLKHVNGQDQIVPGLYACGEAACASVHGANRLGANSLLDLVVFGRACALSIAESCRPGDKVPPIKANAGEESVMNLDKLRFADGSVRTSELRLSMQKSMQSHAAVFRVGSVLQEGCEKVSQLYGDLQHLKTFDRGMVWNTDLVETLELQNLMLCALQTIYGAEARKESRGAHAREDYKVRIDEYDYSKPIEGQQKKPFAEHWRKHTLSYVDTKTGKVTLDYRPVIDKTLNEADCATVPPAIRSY
T1 sequence (P21913 31-282): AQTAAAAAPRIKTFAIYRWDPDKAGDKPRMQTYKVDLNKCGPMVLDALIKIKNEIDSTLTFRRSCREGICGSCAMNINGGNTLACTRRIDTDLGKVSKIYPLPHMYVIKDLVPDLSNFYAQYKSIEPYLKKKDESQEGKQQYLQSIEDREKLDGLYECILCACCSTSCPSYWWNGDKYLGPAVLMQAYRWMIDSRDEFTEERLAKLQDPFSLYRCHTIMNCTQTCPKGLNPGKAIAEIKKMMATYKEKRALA
T1 sequence (Q641Z9 1-169): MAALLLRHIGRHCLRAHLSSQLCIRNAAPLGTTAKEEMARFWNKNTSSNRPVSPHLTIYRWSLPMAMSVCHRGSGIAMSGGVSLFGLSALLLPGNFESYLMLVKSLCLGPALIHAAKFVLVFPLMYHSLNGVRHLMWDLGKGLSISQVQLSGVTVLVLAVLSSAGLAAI
T1 sequence (Q6PCT8 57-159): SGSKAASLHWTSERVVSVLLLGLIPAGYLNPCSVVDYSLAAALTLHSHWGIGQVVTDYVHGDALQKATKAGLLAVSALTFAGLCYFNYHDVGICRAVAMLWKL

rat primary hepatocytes [12] = test: MMP assay in rat primary hepatocytes
[13] = system: p53 (p53-bla HCT-116 cells); test: p53 β-lactamase reporter gene assay; assay type: cell-based, human
[14] = system: Caenorhabditis elegans strain PE255; test: In vivo C. elegans ATP status assay
hNSC = test: MMP assay in human neural stem cells (hNSC); assay type: cell-based; details: for IC50: read-out: hNSC IC50 (MMP)
HepG2 cells [15] = details: cited from earlier work; for IC50: read-out: MMP assays IC50 (µM) qHTS-HepG2
HepG2 cells [16] = test: Intracellular ATP content (cell viability) assay; assay type: cell-based, human
HepG2 cells [17] = system: HepG2 cells
rat primary hepatocytes [18] = system: rat primary hepatocytes
[19] = % of positive control, mean±SD of three experiments
[20] = 16 h incubation, mean±SD of three experiments

Cl.N=C1C=CC(=C(c2ccc(N)cc2)c2ccc(N)cc2)C=C1 [C.I. Basic red 9 monohydrochloride]
ROS (HepG2) EC50 (HepG2 cells [1]; 2 h treatment, mean±SD of three experiments): Inactive
Complex I % inhibition [2]: 14.1±2.98 at 100μM %
I-ADP, % of control (O2 consumption rate) ([3]; 0.8 µM, glutamate/malate driven state 3 respiration, isolated rat liver mitochondria): 94 (41.0) % of control
I-sub, % of control (O2 consumption rate) ([3]; 0.8 µM, glutamate/malate driven state 4 respiration, isolated rat liver mitochondria): 100 (13.1) % of control
II-ADP, % of control (O2 consumption rate) ([3]; 0.8 µM, succinate-driven state 3 respiration, isolated rat liver mitochondria): 97 (65.8) % of control
II-sub, % of control (O2 consumption rate) ([3]; 0.8 µM, succinate-driven state 4 respiration, isolated rat liver mitochondria): 96 (20.1) % of control
I-ADP, % of control (O2 consumption rate) ([3]; 4 µM, glutamate/malate driven state 3 respiration, isolated rat liver mitochondria): 82 (35.8) % of control
I-sub, % of control (O2 consumption rate) ([3]; 4 µM, glutamate/malate driven state 4 respiration, isolated rat liver mitochondria): 92 (12.1) % of control
II-ADP, % of control (O2 consumption rate) ([3]; 4 µM, succinate-driven state 3 respiration, isolated rat liver mitochondria): 93 (63.1) % of control
II-sub, % of control (O2 consumption rate) ([3]; 4 µM, succinate-driven state 4 respiration, isolated rat liver mitochondria): 101 (21.1) % of control
I-ADP, % of control (O2 consumption rate) ([3]; 20 µM, glutamate/malate driven state 3 respiration, isolated rat liver mitochondria): 64 (27.9) % of control
I-sub, % of control (O2 consumption rate) ([3]; 20 µM, glutamate/malate driven state 4 respiration, isolated rat liver mitochondria): 106 (13.9) % of control
II-ADP, % of control (O2 consumption rate) ([3]; 20 µM, succinate-driven state 3 respiration, isolated rat liver mitochondria): 66 (44.4) % of control
II-sub, % of control (O2 consumption rate) ([3]; 20 µM, succinate-driven state 4 respiration, isolated rat liver mitochondria): 110 (22.9) % of control
I-ADP, % of control (O2 consumption rate) ([3]; 100 µM, glutamate/malate driven state 3 respiration, isolated rat liver mitochondria): 17 (9.1) % of control
I-sub, % of control (O2 consumption rate) ([3]; 100 µM, glutamate/malate driven state 4 respiration, isolated rat liver mitochondria): 94 (12.7) % of control
II-ADP, % of control (O2 consumption rate) ([3]; 100 µM, succinate-driven state 3 respiration, isolated rat liver mitochondria): 31 (21.0) % of control
II-sub, % of control (O2 consumption rate) ([3]; 100 µM, succinate-driven state 4 respiration, isolated rat liver mitochondria): 96 (20.8) % of control
effect on mitochondrial respiration (in words) ([3]; Clark-type oxygen electrode, concentrations up to 100μM): moderate inhibitory effect on state 3 respiration driven by both glutamate/malate and succinate, but not on state 4 respiration
Potential Mechanism ([3]; mitochondrial respiration in isolated rat liver mitochondria, Clark type oxygen electrode, over tested concentrations): Inhibitor
Parkin recruitment ([4]; HeLa cells stably expressing YFP-Parkin, treated for 2 h): Inactive
Complex V % inhibition (activity call) [5]: Inactive
EC50 [6]: 11.7 ± 7.37 µM
ARE (HepG2) (efficacy) [6]: 107±42.3%
EXT: mean difference in nematode size relative to plate controls ([7]; 0.5 µM): 0.03177
EXT: mean difference in nematode size relative to plate controls ([7]; 1 µM): -0.03542
EXT: mean difference in nematode size relative to plate controls ([7]; 5 µM): 0.06311
EXT: mean difference in nematode size relative to plate controls ([7]; 10 µM): 0.04374
EXT: mean difference in nematode size relative to plate controls ([7]; 25 µM): 0.1555
EXT: mean difference in nematode size relative to plate controls ([7]; 50 µM): 0.3061
EXT: mean difference in nematode size relative to plate controls ([7]; 75 µM): 1.032
EXT: mean difference in nematode size relative to plate controls ([7]; 100 µM): 1.117
LEC EXT: lowest effect concentration for extinction, a measure of nematode size ([7]; C. elegans larval growth, JT trend test, Bonferoni correction p<0.05): 50 µM
Complex IV % inhibition (activity call) [8]: Inactive
Complex III % inhibition [9]: 21.6±6.41 at 100μM %
Activity in oxygen consumption (HepG2 cells [10]; Seahorse XF24, HepG2 cells, 25 mM glucose, 1, 4, 16, and 64μM): Inhibitor
Complex II % inhibition [11]: 12.2±3.48 at 100μM %
Rat hepatocytes (efficacy) (MMP) (rat primary hepatocytes [12]; [19]): −90.3±2.77%
MMP assays efficacy (%) Rat Hepatocytes (rat primary hepatocytes [12]; rat hepatocytes, mean ± SD of three experiments): -96±23%
IC50 (rat primary hepatocytes [12]; read-out: MMP assays IC50 (µM) Rat Hepatocytes, rat hepatocytes, mean ± SD of three experiments): 4.11 ± 4.24 µM
IC50 (rat primary hepatocytes [12]; read-out: Rat hepatocytes IC50 (MMP), 1 h treatment, fresh re-sourced stocks, mean±SD of three experiments): 6.3 ± 0.43 µM
p53 (HCT-116) EC50 [13, 20]: Inactive
LUM: mean difference in luminescence (ATP content) relative to plate controls ([14]; 0.5 µM): 0.1703
LUM: mean difference in luminescence (ATP content) relative to plate controls ([14]; 1 µM): 0.2203
LUM: mean difference in luminescence (ATP content) relative to plate controls ([14]; 5 µM): 0.7285
LUM: mean difference in luminescence (ATP content) relative to plate controls ([14]; 10 µM): 0.8296
LUM: mean difference in luminescence (ATP content) relative to plate controls ([14]; 25 µM): 1.533
LUM: mean difference in luminescence (ATP content) relative to plate controls ([14]; 50 µM): 2.0258
LUM: mean difference in luminescence (ATP content) relative to plate controls ([14]; 75 µM): 2.358
LUM: mean difference in luminescence (ATP content) relative to plate controls ([14]; 100 µM): 2.677
LEC (lowest effect concentration), ATP assay ([14]; 24 h exposure): ≤ 10 µM
LEC LUM: lowest effect concentration for luminescence, a measure of nematode ATP content ([14]; C. elegans ATP, JT trend test, Bonferoni correction p<0.05): 5 µM
IC50 (hNSC; 1 h treatment, fresh re-sourced stocks, mean±SD of three experiments): 2.55 ± 0.58 µM
hNSC (efficacy) (MMP) (hNSC; [19]): −70.3±7.17%
MMP assays efficacy (%) qHTS-HepG2 (HepG2 cells [15]): -95±11%
IC50 (HepG2 cells [15]): 0.08 ± 0.02 µM
IC50 (HepG2 cells [16]; 5 mM glucose, 40 h treatment, mean±SD of three experiments, read-out: ATP (HepG2, glucose) IC50): 9.72 ± 5.01 µM
ATP (HepG2, glucose) (efficacy) (HepG2 cells [16]; 5 mM glucose, % of positive control): −101±8.17%
IC50 (HepG2 cells [16]; 10 mM galactose, 40 h treatment, mean±SD of three experiments, read-out: ATP (HepG2, galactose) IC50): 6.25 ± 2.01 µM
ATP (HepG2, galactose) (efficacy) (HepG2 cells [16]; 10 mM galactose, % of positive control): −98.4±12.9%
HepG2 (efficacy) Glucose (MMP) (HepG2 cells [17]; 5 mM glucose, % of positive control, mean±SD of three experiments): −97.1±6.48%
HepG2 (efficacy) Galactose (MMP) (HepG2 cells [17]; 10 mM galactose, % of positive control, mean±SD of three experiments): −89.4±4.30%
MMP assays efficacy (%) HepG2 (HepG2 cells [17]; HepG2 cells, single number from one experiment): -94%
IC50 (HepG2 cells [17]; read-out: HepG2 IC50 Galactose (MMP), 10 mM galactose, no glucose, 1 h treatment, mean±SD of three experiments): 2.53 ± 0.46 µM
IC50 (HepG2 cells [17]; read-out: HepG2 IC50 Glucose (MMP), 5 mM glucose, 1 h treatment, fresh re-sourced stocks, mean±SD of three experiments): 1.66 ± 0.28 µM
IC50 (HepG2 cells [17]; read-out: MMP assays IC50 (µM) HepG2, HepG2 cells, single number from one experiment): 0.56 µM

CC(C)c1cccc(C(C)C)c1N1C(=O)c2ccc(O)cc2C1=O [5HPP-33]
ROS (HepG2) (efficacy) (HepG2 cells [1]): 37.1±2.42 ( 37.6±1.63 ) %
EC50 (HepG2 cells [1]; read-out: ROS (HepG2) EC50): 37.1 µM
Potential Mechanism [3]: Uncoupler at low concentration (20 µM), and uncoupler + inhibitor at high concentration (100 µM)
I-ADP, % of control (O2 consumption rate) ([3]; 4 µM): 107 (52.5) % of control
I-sub, % of control (O2 consumption rate) ([3]; 4 µM): 123 (19.8) % of control
II-ADP, % of control (O2 consumption rate) ([3]; 4 µM): 89 (69.2) % of control
II-sub, % of control (O2 consumption rate) ([3]; 4 µM): 97 (29.6) % of control
I-ADP, % of control (O2 consumption rate) ([3]; 20 µM): 122 (60.3) % of control
I-sub, % of control (O2 consumption rate) ([3]; 20 µM): 296 (47.6) % of control
II-ADP, % of control (O2 consumption rate) ([3]; 20 µM): 95 (73.6) % of control
II-sub, % of control (O2 consumption rate) ([3]; 20 µM): 166 (50.8) % of control
I-ADP, % of control (O2 consumption rate) ([3]; 100 µM): 77 (41.0) % of control
I-sub, % of control (O2 consumption rate) ([3]; 100 µM): 331 (44.5) % of control
II-ADP, % of control (O2 consumption rate) ([3]; 100 µM): 51 (34.2) % of control
II-sub, % of control (O2 consumption rate) ([3]; 100 µM): 200 (43.4) % of control
Parkin recruitment [4]: Active
EC50 [6]: 25.3 ± 1.74 µM
ARE (HepG2) (efficacy) [6]: 54.9±7.97%
Rat hepatocytes (efficacy) (MMP) (rat primary hepatocytes [18]): 38.3±4.41 ( −99.8±6.08 ) %
Activity in oxygen consumption (HepG2 cells [10]): Uncoupler+inhibitor
IC50 (rat primary hepatocytes [12]; read-out: MMP assays IC50 (µM) Rat Hepatocytes): 29.1 ± 12.2 µM
IC50 (rat primary hepatocytes [12]; read-out: Rat hepatocytes IC50 (MMP)): 38.3 µM
EC50 [13, 20]: 1730 ± 190 nM
p53 (HCT-116) (efficacy) ([13]; % of positive control): 76.9±9.78%
hNSC (efficacy) (MMP) (hNSC): 12.1±1.39 ( −107±4.15 ) %
IC50 (hNSC): 12.1 µM
MMP assays efficacy (%) qHTS-HepG2 (HepG2 cells [15]): -97±0%
IC50 (HepG2 cells [15]): 2.09 ± 0.87 µM
ATP (HepG2, galactose) (efficacy) (HepG2 cells [16]): 39.7±2.69 ( −66.5±7.10 ) %
ATP (HepG2, glucose) (efficacy) (HepG2 cells [16]): 51.2±14.4 ( −67.7±3.67 ) %
IC50 (HepG2 cells [16]; read-out: ATP (HepG2, galactose) IC50): 39.7 µM
IC50 (HepG2 cells [16]; read-out: ATP (HepG2, glucose) IC50): 51.2 µM
HepG2 (efficacy) Galactose (MMP) (HepG2 cells [17]): 29.4±5.02 ( −106±1.68 ) %
HepG2 (efficacy) Glucose (MMP) (HepG2 cells [17]): 20.1±3.62 ( −100±2.99 ) %
MMP assays efficacy (%) HepG2 (HepG2 cells [17]): -96%
IC50 (HepG2 cells [17]; read-out: HepG2 IC50 Galactose (MMP)): 29.4 µM
IC50 (HepG2 cells [17]; read-out: HepG2 IC50 Glucose (MMP)): 20.1 µM
IC50 (HepG2 cells [17]; read-out: MMP assays IC50 (µM) HepG2): 2.24 µM
